Common to all, as to format: cell-based
The test system of one test is HTT mRNA. The experiment in a line: Splicing assay (RT-qPCR) monitoring HTT canonical junction (CJ) and alternative junction (AJ) mRNA isoforms. To be noted: A673 or K562 cells, 24 h treatment, top dose 10 uM. As for the experimental part: Compounds described herein were used to modulate RNA transcript abundance in cells. The expression of a target mRNA was measured by detecting the formation of an exon-exon junction in the canonical transcript (CJ). A compound mediated exon-inclusion event was detected by observing an increase in formation of a new junction with an alternative exon (AJ). Real-time qPCR assays were used to detect these splicing switches and interrogate the potency of various compounds towards different target genes. A high-throughput real time quantitative PCR (RT-qPCR) assay was developed to measure these two isoforms of the mRNA (CJ and AJ) for an exemplary gene, HTT, together with a control housekeeping gene, GAPDH or GUSB or PPIA, used for normalization. Briefly, the A673 or K562 cell line was treated with various compounds described herein (e.g., compounds of Formula (I)). After treatment, the levels of the HTT mRNA targets were determined from each sample of cell lysate by cDNA synthesis followed by qPCR.
• Cells-to-CT 1-step kit: ThermoFisher A25602, Cells-to-CT lysis reagent: ThermoFisher 4391851C, TaqMan™ Fast Virus 1-Step Master Mix: ThermoFisher 4444436 • GAPDH: VIC-PL, ThermoFisher 4326317E (Assay: Hs99999905_m1)—used for K562/suspension cell lines • GUSB: VIC-PL, ThermoFisher 4326320E (Assay: Hs99999908_m1)—used for K562/suspension cell lines • PPIA: VIC-PL, ThermoFisher 4326316E (Assay: Hs99999904_m1) — used for A673/adherent cell lines
The A673 cell line was cultured in DMEM with 10% FBS. Cells were diluted with full growth media and plated in a 96-well plate (15,000 cells in 100 ul media per well). The plate was incubated at 37° C. with 5% CO2 for 24 hours to allow cells to adhere. An 11-point 3-fold serial dilution of the compounds was made in DMSO then diluted in media in an intermediate plate. Compounds were transferred from the intermediate plate to the cell plate with the top dose at a final concentration of 10 uM in the well. Final DMSO concentration was kept at or below 0.25%. The cell plate was returned to the incubator at 37° C. with 5% CO2 for an additional 24 hours.
The K562 cell line was cultured in IMDM with 10% FBS. For K562, cells were diluted with full growth media and plated in either a 96-well plate (50,000 cells in 50 uL media per well) or a 384-well plate (8,000-40,000 cells in 45 uL media per well). An 11-point 3-fold serial dilution of the compounds were made in DMSO then diluted in media in an intermediate plate. Compound was transferred from the intermediate plate to the cell plate with the top dose at a final concentration of 10 uM in the well. Final DMSO concentration was kept at or below 0.25%. Final volume was 100 uL for 96-well plate and 50 uL for 384-well plate. The cell plate was then placed in an incubator at 37° C. with 5% CO2 for 24 hours.
The cells were then gently washed with 50 uL-100 uL cold PBS before proceeding to addition of lysis buffer. 30 uL-50 uL of room temperature lysis buffer with DNAse I (and optionally RNAsin) was added to each well. Cells were shaken/mixed thoroughly at room temperature for 5-10 minutes for lysis to take place and then 3 uL-5 uL of room temperature stop solution was added and wells were shaken/mixed again. After 2-5 minutes, the cell lysate plate was transferred to ice for RT-qPCR reaction setup. The lysates could also be frozen at −80° C. for later use.
In some cases, a direct lysis buffer was used. An appropriate volume of 3× lysis buffer (10 mM Tris, 150 mM NaCl, 1.5%-2.5% Igepal and 0.1-1 U/uL RNAsin, pH 7.4) was directly added to either K562 or A673 cells in media and mixed by pipetting 3 times. The plates were then incubated at room temperature with shaking/rocking for 20-50 minutes to allow for lysis to take place. After this time, the cell lysate plate was transferred to ice to set up for the RT-qPCR reactions. The lysates could also be frozen at −80° C. for later use. […]
(In general: Real-time PCR tracks product formation cycle by cycle.)

The subject of a further test is HTT CJ mRNA. The experiment in a line: Gene panel canonical junction qPCR assay, HTT. To be noted: decrease in CJ mRNA levels, gene panel; read-out: HTT IC50. As for the experimental part: (§1) The expression of a target mRNA was measured by detecting the formation of an exon-exon junction in the canonical transcript (CJ). A compound mediated exon-inclusion event was detected by observing an increase in formation of a new junction with an alternative exon (AJ). Real-time qPCR assays were used to detect these splicing switches and interrogate the potency of various compounds towards different target genes. A high-throughput real time quantitative PCR (RT-qPCR) assay was developed to measure these two isoforms of the mRNA (CJ and AJ) for an exemplary gene, HTT, together with a control housekeeping gene, GAPDH or GUSB or PPIA, used for normalization. Briefly, the A673 or K562 cell line was treated with various compounds described herein (e.g., compounds of Formula (I)). After treatment, the levels of the HTT mRNA targets were determined from each sample of cell lysate by cDNA synthesis followed by qPCR. The A673 cell line was cultured in DMEM with 10% FBS. Cells were diluted with full growth media and plated in a 96-well plate (15,000 cells in 100 ul media per well). The plate was incubated at 37° C. with 5% CO2 for 24 hours to allow cells to adhere. An 11-point 3-fold serial dilution of the compounds was made in DMSO then diluted in media in an intermediate plate. Compounds were transferred from the intermediate plate to the cell plate with the top dose at a final concentration of 10 uM in the well. Final DMSO concentration was kept at or below 0.25%. The cell plate was returned to the incubator at 37° C. with 5% CO2 for an additional 24 hours. The K562 cell line was cultured in IMDM with 10% FBS. For K562, cells were diluted with full growth media and plated in either a 96-well plate (50,000 cells in 50 uL media per well) or a 384-well plate (8,000-40,000 cells in 45 uL media per well). An 11-point 3-fold serial dilution of the compounds were made in DMSO then diluted in media in an intermediate plate. Compound was transferred from the intermediate plate to the cell plate with the top dose at a final concentration of 10 uM in the well. Final DMSO concentration was kept at or below 0.25%. Final volume was 100 uL for 96-well plate and 50 uL for 384-well plate. The cell plate was then placed in an incubator at 37° C. with 5% CO2 for 24 hours. The cells were then gently washed with 50 uL-100 uL cold PBS before proceeding to addition of lysis buffer. 30 uL-50 uL of room temperature lysis buffer with DNAse I (and optionally RNAsin) was added to each well. Cells were shaken/mixed thoroughly at room temperature for 5-10 minutes for lysis to take place and then 3 uL-5 uL of room temperature stop solution was added and wells were shaken/mixed again. After 2-5 minutes, the cell lysate plate was transferred to ice for RT-qPCR reaction setup. The lysates could also be frozen at −80° C. for later use. In some cases, a direct lysis buffer was used. An appropriate volume of 3× lysis buffer (10 mM Tris, 150 mM NaCl, 1.5%-2.5% Igepal and 0.1-1 U/uL RNAsin, pH 7.4) was directly added to either K562 or A673 cells in media and mixed by pipetting 3 times. The plates were then incubated at room temperature with shaking/rocking for 20-50 minutes to allow for lysis to take place. After this time, the cell lysate plate was transferred to ice to set up for the RT-qPCR reactions. The lysates could also be frozen at −80° C. for later use. To set up 10 uL RT-qPCR reactions, cell lysates were transferred to 384-well qPCR plates containing the master mix according to the table below. The plates were sealed, gently vortexed, and spun down before the run. The volumes were adjusted accordingly in some instances where the reaction was carried in 20 uL. The table below summarizes the components of the RT-qPCR reactions: The RT-qPCR reaction was performed using a QuantStudio (ThermoFisher) under the following fast cycling conditions. All samples and standards were analyzed at least in duplicate.

In the next test the test system is SMN2 CJ mRNA. The experiment in a line: Gene panel canonical junction qPCR assay, SMN2. To be noted: decrease in CJ mRNA levels, gene panel; read-out: SMN2 IC50. As for the experimental part: as §1
Setting [1] is: decrease in CJ mRNA (50% response), read-out: HTT CJ AC50.
The mark [2] stands for this setting: increase in AJ mRNA (50% response), read-out: HTT AJ AC50.

Structures can show the parent of a compound that is named as a salt. Where two headings read alike, the source gives them in different places.

As usually defined, the AC50 is the concentration at which the activity in the assay is half-maximal. The IC50 is the concentration needed to halve the response being measured.

Regarding `Cc1cc(-c2ccc3c(=O)n(C4CCN(C)CC4)cnc3n2)cc2cn(C)nc12` [Compound 173, 7-(2,7-dimethyl-2H-indazol-5-yl)-3-(1-methylpiperidin-4-yl)pyrido[2,3-d]pyrimidin-4(3H)-one], the AC50 in the test on HTT mRNA (setting [1]) and in the test on HTT mRNA (setting [2]) was greater than 10 µM throughout. The figures for the IC50 in the test with HTT CJ mRNA and in the test with SMN2 CJ mRNA were greater than 10 µM and 1 to 10 µM, respectively.

For `Cc1cc(-c2ccc3nc(N4CCN(C)CC4)[nH]c(=O)c3c2)cc2cn(C)nc12` [Compound 165, 6-(2,7-dimethyl-2H-indazol-5-yl)-2-(4-methylpiperazin-1-yl)quinazolin-4(3H)-one], the AC50 with HTT mRNA (setting [1]) and in the test on HTT mRNA (setting [2]) was greater than 10 µM in each case. Also, the half-inhibitory concentration (IC50) in the test with HTT CJ mRNA was greater than 10 µM; in the test with SMN2 CJ mRNA it was 0.1 to 1 µM.

For `Cc1cn2nc(-c3ccc4c(c3F)CCN(C3CCNCC3)C4=O)cc(C)c2n1` [Compound 188, 6-{2,8-dimethylimidazo[1,2-b]pyridazin-6-yl}-5-fluoro-2-(piperidin-4-yl)-3,4-dihydroisoquinolin-1-one], the AC50 in the test on HTT mRNA (setting [1]) and with HTT mRNA (setting [2]) was 1 to 10 µM throughout.

On to `Cc1cc(-c2ccc3c(=O)n(C4CC(C)(C)NC(C)(C)C4)cnc3c2)cc2cn(C)nc12` [Compound 157, 7-(2,7-dimethyl-2H-indazol-5-yl)-3-(2,2,6,6-tetramethylpiperidin-4-yl)quinazolin-4(3H)-one hydrochloride], for which the AC50 in the test on HTT mRNA (setting [1]) and in the test on HTT mRNA (setting [2]) was greater than 10 µM each time. Besides, the half-maximal inhibitory concentration (IC50) is greater than 10 µM in the test with HTT CJ mRNA and 1 to 10 µM in the test with SMN2 CJ mRNA.

Consider `Cc1cn2nc(-c3ccc4c(c3)CCN(C3CCNCC3)C4=O)cc(C)c2n1` [Compound 185, 6-[2,8-dimethylimidazo [1,2-b]pyridazin-6-yl]-2-(piperidin-4-yl) -3,4-dihydroisoquinolin-1-one], for which the AC50 lay in the range of 0.1 to 1 µM in the test with HTT mRNA (setting [1]) and 1 to 10 µM in the test with HTT mRNA (setting [2]).

As to `CN1CC=C(c2ccc3c(=O)n(-c4ccc5nn(C)cc5c4)cnc3c2)CC1` [Compound 159, 7-(1-methyl-1,2,3,6-tetrahydropyridin-4-yl)-3-(2-methyl-2H-indazol-5-yl)quinazolin-4(3H)-one], the half-maximal activity concentration (AC50) in the test on HTT mRNA (setting [1]) and in the test on HTT mRNA (setting [2]) was greater than 10 µM in each case. Moreover, the IC50 with HTT CJ mRNA and in the test with SMN2 CJ mRNA was greater than 10 µM each time.

`Cc1cn2nc(-c3ccc4c(=O)n(C5CCNCC5)ncc4c3)cc(C)c2n1` [Compound 186, 6-[2,8-dimethylimidazo[1,2-b]pyridazin-6-yl]-2-(piperidin-4-yl)phthalazin-1-one]: the concentration at half-maximal activity (AC50) in the test on HTT mRNA (setting [1]) and in the test on HTT mRNA (setting [2]) was less than 0.1 µM throughout.

In the case of `Cc1cc(-c2ccc3c(=O)n(C4CCN(C)CC4)cnc3c2)cc2cn(C)nc12` [Compound 156], the AC50 with HTT mRNA (setting [1]) and in the test with HTT mRNA (setting [2]) was 1 to 10 µM throughout. For the same compound, the IC50 in the test on HTT CJ mRNA lay within 1 to 10 µM; in the test on SMN2 CJ mRNA, 0.1 to 1 µM.

For the compound `Cc1cc(-c2ccc3c(=O)n(C4CCNCC4)cnc3c2)cc2cn(C)nc12` [Compound 174, 7-(2,7-dimethyl-2H-indazol-5-yl)-3-(piperidin-4-yl)quinazolin-4(3H)-one], the AC50 with HTT mRNA (setting [1]) and in the test on HTT mRNA (setting [2]) was 0.1 to 1 µM throughout. The IC50 in the test with HTT CJ mRNA was 0.1 to 1 µM; with SMN2 CJ mRNA, less than 0.1 µM.

As to `Cc1cn2cc(-c3ccc4c(=O)n(C5CCNCC5)ncc4c3)nc2c(C)n1` [Compound 258], the AC50 is 1 to 10 µM with HTT mRNA (setting [1]) and greater than 10 µM in the test on HTT mRNA (setting [2]).

Consider `Cn1cc2cc(-n3cnc4cc(NC5CCNCC5)ccc4c3=O)ccc2n1` [Compound 162], for which the AC50 with HTT mRNA (setting [1]) and in the test with HTT mRNA (setting [2]) was greater than 10 µM in each case. Moreover, the concentration for half-maximal inhibition (IC50) in the test with HTT CJ mRNA and in the test on SMN2 CJ mRNA was greater than 10 µM throughout.

Consider `Cn1cc2cc(-n3cnc4cc(C5=CCNCC5)ccc4c3=O)ccc2n1` [Compound 158, 3-(2-methyl-2H-indazol-5-yl)-7-(1,2,3,6-tetrahydropyridin-4-yl)quinazolin-4(3H)-one], for which the concentration at half-maximal activity (AC50) in the test on HTT mRNA (setting [1]) and in the test with HTT mRNA (setting [2]) was greater than 10 µM throughout. The IC50 in the test on HTT CJ mRNA and in the test on SMN2 CJ mRNA was greater than 10 µM in each case.

For the compound `Cn1cc2cc(-n3cnc4cc(N5CCNCC5)ccc4c3=O)ccc2n1` [Compound 153, 3-(2-methyl-2H-indazol-5-yl)-7-(piperazin-1-yl)quinazolin-4(3H)-one], the AC50 with HTT mRNA (setting [1]) and in the test on HTT mRNA (setting [2]) was greater than 10 µM throughout. For the same compound, the IC50 with HTT CJ mRNA was greater than 10 µM; with SMN2 CJ mRNA, 1 to 10 µM.
